Take `Cc1c(C(=O)OCc2ccccc2)sc2ccc3[nH]c4c(c3c12)CNCC4`: the melting point (as a rule, the temperature, or range, at which the solid turns liquid) stood at 178 °C.
Molecule `O=C(O)Cc1ccc(-n2cc(Cl)cn2)cc1` showed a melting point of 176 to 178 °C.
As to `CC(C)CC(=O)NC(=O)c1nnn(Cc2ccccc2)c1NC(=O)CC(C)C`, the melting point lay in the range of 125 to 128 °C.
Take `CCOC(=O)C1=Cc2ccc(O)cc2OCC1`: the melting point was in the range of 131 to 132 °C.
As to `Nc1ccccc1-c1cc[nH]n1`, the melting point lay within 122 to 123 °C.
For `CCOCc1nc2c(N)nc3cc(-c4cccnc4)ccc3c2n1C[C@@H]1COC(C)(C)O1` the value was 155 to 156 °C.
For `COc1cccc(N2CCN(C(=O)[C@](C)(C#N)[C@H](c3ccccc3OC)c3cccc4ccccc34)CC2)c1` the value was 147 to 148 °C.
`CCCCCC(O)CCCC(CCCCCCC(=O)O)S(C)(=O)=O` (configuration not stated): the melting point lay within 47 to 48 °C.
Molecule `Cc1nc(N2CCc3ccccc3CC2)c(C#N)c(=O)n1CCN(C)C` displayed a melting point of 134 to 139 °C.
For `CC=CCn1c(C)c(C)c2cnnc(OCc3ccc(Cl)cc3Cl)c21` the value was 133 to 134 °C; for `CCCC(C)C(=O)N1CC(NC(=O)Nc2cccc(C(=O)O)c2)C(=O)N(CC(=O)c2ccccc2C)c2cc(C)ccc21` (configuration not stated), 227 to 229 °C.
For `C[C@@H](NC(=NC#N)Nc1ccc(C#N)cc1)C(C)(C)C` the value was 159 to 160 °C.
The figure for `OCCOc1cccc2cccnc12` is 82 to 84 °C; for `O=S1(=O)N=CN(CCF)c2cc(Cl)c(Cl)cc21` it is 233 to 234 °C.
Take `COc1ccc(Cl)cc1C(=O)NCCC1CCN(S(=O)(=O)NC(=S)NC(C)C)CC1`: the melting point was 145 to 147 °C.
The figure for `CN(c1ccc(S(C)(=O)=O)cc1)S(=O)(=O)c1cccc(NC(=O)c2ccc(Br)cc2)c1` is 216 to 218 °C; for `CCCCCc1c(-c2ccc3c(Br)c(OCC#N)ccc3c2)oc2ccccc12` it is 111 to 113 °C; for `CCCOc1cc(S(C)(=O)=O)ccc1-c1ccc(C#N)c(=O)[nH]1` it is 241 to 242 °C.
The figure for `CCc1c(Cl)cnn(C(C)(C)C)c1=O` is 61.5 to 62.5 °C; for `COc1ccc(CC#N)cc1C(=O)NCc1ccc(C(F)(F)F)cc1` it is 124 to 125 °C.
`CC(C)CC(C)(C(=O)NC1CCCCCCCCCCNC1=O)c1ccccc1S` (configuration not stated): the melting point fell in the range of 166 to 171 °C.
For `CC1CC(N)=NN1c1ccc(Cl)cn1` (configuration not stated), the melting point fell in the range of 168 to 170 °C.
For `O=C(OCc1ccccc1)N1CCN(c2ccc(S(=O)(=O)N3CCCC3=O)cc2)CC1` the value was 153 to 155 °C; for `CC(C)C(C)OC(=S)c1ccc(N)cc1Cl` (configuration not stated), 43 to 46 °C; for `CC1(C)CC(=O)Nc2cc3nc(-c4ccc(-n5ccnc5)cc4)[nH]c3cc21`, above 300 °C.
Molecule `COCN1NC(=O)N(C)C1c1ccccc1-c1ccc(CBr)cc1` (configuration not stated) yielded a melting point of 137 to 138 °C.
The figure for `Cc1c(N)cc(C(C)(C)C)c2c1CC(C)(C)O2` is 115 to 116 °C; for `NC(=O)c1c(Cl)c(-c2ccccc2)n2c1CN(C(=O)Nc1cccc(C(=O)O)c1)CC2` it is 263 to 265 °C; for `O=S(=O)(CCO)Nc1cc(C(c2cc(F)ccc2F)S(=O)(=O)c2ccc(Cl)cc2)c(Cl)cn1` (configuration not stated) it is 155 to 158 °C.
The figure for `CC1(C)OC(=O)Nc2ccc(-c3sccc3C#N)cc21` is 200 to 202 °C; for `CCCN(CCC)C(=O)Cn1c(-c2ccc(F)cc2)nc2cccnc21` it is 135 to 136 °C.
For `CCOP(=O)(OCC)C(C)(C)NC(=O)c1cccc([N+](=O)[O-])c1` the value was 95 to 96 °C; for `Cc1c(-c2cnc(C(N)=O)c3[nH]c4cc(NC5CCOC5)ccc4c23)cccc1N1Cc2ccc(Cl)cc2C1=O` (configuration not stated), 115 °C.
For the molecule `O=C1CC(ON(Cc2ccccc2)Cc2ccccc2)C(=O)N1c1ccccc1` (configuration not stated), the melting point was in the range of 91 to 93 °C.
The molecule `Nc1cccc(Oc2cc(Oc3cccc(N)c3)cc(C(F)(F)F)c2)c1` returned a melting point of 98 to 98.6 °C.
The figure for `COCc1nc2c(N)nc3cc(CCC(=O)N4CCS(=O)(=O)CC4)ccc3c2n1CC(C)(C)O` is 190 to 192 °C; for `COCOc1c(OC)cc(C(S)CS)cc1OC` (configuration not stated) it is 84 to 85 °C; for `COc1ccnc(CSc2nc3cc4c(cc3[nH]2)OCO4)c1OC` it is 155 to 157 °C.
The figure for `C#CCNc1nc2cc3ccccc3cc2nc1Cl` is 169 to 172 °C.
With `O=C1C(c2cccc(-c3ccccc3)c2)n2cncc2CN1Cc1ccccc1` (configuration not stated), the melting point was 232 to 234 °C.
For `Cc1ccc2cccc(OCc3c(Cl)ccc(S(=O)(=O)N4CCC[C@H]4C(=O)NCCCNC(=O)c4ccc(C#N)cc4)c3Cl)c2n1` the value was 78 to 80 °C.
The figure for `CC1(C)CCC(=O)Nc2ccc(N)cc21` is 168 °C; for `CCn1cc(C(=O)O)c(=O)c2cc(F)c(-c3ccnc(CN)n3)c(F)c21` it is 285 to 289 °C.
The figure for `CNc1nnc(-c2ccc3ncn(-c4ccc(OC(F)(F)F)cc4)c3c2)o1` is 183 to 184 °C.
Turning to `O=C(CCc1cnoc1-c1ccccc1)Nc1ccc(CP(=O)(O)O)cc1`, the melting point lay in the range of 162 to 164 °C.
For `Cc1ccc(C(O)(c2ccc(C)cc2)C2CCN(CCCC(O)c3ccc(C(C)(C)C(=O)O)cc3)CC2)cc1` (configuration not stated) the value was 208 to 215 °C; for `COc1cc2cc(c1Cl)N(C)C(=O)CC(O)C1(C)OC1C(C)C1CC(O)(NC(=O)O1)C(OC)C=CC=C(C)C2` (configuration not stated), 174 °C.
The figure for `CCOc1cc(OCCCc2cn(-c3cc(C(F)(F)F)ccn3)nc2OCC)ccc1CCC(=O)OC` is 79 to 81 °C; for `O=C1NC(=O)C(=Cc2cc(O)c(O)c([N+](=O)[O-])c2)C(=O)N1` it is 269 to 272 °C; for `CNC(=S)N1CCc2c(ncn2C)C1` it is 238 °C.
For `CNC(=O)C(C#N)C(=O)C1CCC1` (configuration not stated) the value was 81 to 83 °C; for `CC(=O)Oc1ccccc1C(=O)NC1CCN(CCCOc2ccccc2C#N)CC1`, 80 to 82 °C; for `CC(C)(C)c1ccc(CCCC(=O)CC2CCCCC2)cc1NC(=O)CC1c2ccccc2Oc2ccccc21`, 193 to 194 °C.
`C[C@@H]1S[C@@H](C(=O)Nc2ccc(CN3CCSCC3)cc2)Cc2cc3c(cc2C1=O)OCO3`: the melting point fell in the range of 204 to 206 °C.
On to `CCOC(CBr)(OCC)C(=NOC)C(=O)Cl`, for which the melting point lay within 33 to 35 °C.
For the molecule `CCCC1(C)C(=O)N(COC(=O)c2c(Cl)cccc2Cl)S(=O)(=O)N1C` (configuration not stated), the melting point was 93 to 95 °C.
For `CC(O)(CCBr)c1ccc(-c2cccc(F)c2)cc1` (configuration not stated) the value was 72 to 74 °C; for `Cn1cncc1C(O)c1ccc2c(c1)c(-c1cccc(Cl)c1)nc1nnnn12` (configuration not stated), 190 °C.
For `CCCCC(CC)COc1ccc(-c2nc(-c3ccc(OCC(CC)CCCC)cc3)nc(-c3ccc(OCC(CC)CCCC)cc3O)n2)cc1` (configuration not stated) the value was 93 to 95 °C.
For `CC(C)NC(=O)CSCC(=O)c1ccc(-c2ccccc2)cc1` the value was 120 to 121 °C; for `O=c1oc2cccc(O)c2c(OCCN2CCOCC2)c1-c1ccccc1`, 206 °C.
Take `CN1CCC(c2c[nH]c3ccc(NS(=O)(=O)c4ccc(I)cc4)cc23)CC1`: the melting point is above 250 °C.
The figure for `CC(C)(C)OP(=O)(Cc1ccc(Br)cc1)OC(C)(C)C` is 45 °C; for `CCc1cccc(CC)c1-n1cncc1C(N)=O` it is 171 to 172 °C.
The figure for `CON=C1SC(C)(c2ccccc2)C(=O)N1Nc1ccccc1` (configuration not stated) is 133 to 134 °C; for `COC(=O)c1ccc(OCCNC(=O)C2Cc3ccccc3N2S(=O)(=O)c2ccc(-c3ccc(F)cc3)cc2)c(C(F)(F)F)c1` (configuration not stated) it is 90 to 95 °C; for `CN(C=O)c1ccccc1C(=O)COC(=O)c1ccccc1` it is 100 to 102 °C.
For `Nc1ccc(C(O)c2ccc(Cl)cn2)cc1` (configuration not stated) the value was 122 to 123 °C; for `O=C(O)COc1ccc(SCCc2ccc(-c3ccc(C(F)(F)F)cc3)cc2)c2c1CCC2`, 170 to 172 °C; for `CCNC(=O)OCCCCCCCCC1CC2=C(C1)C(=O)C(OC)=C(OC)C2=O`, 85 to 86 °C.
The molecule `CN1CC2C(C1)C2Nc1ncc2cc(-c3ccccc3Cl)c(=O)n(C3CC3)c2n1` (configuration not stated) gave a melting point of 190 to 191 °C.
For `O=C(O)C(CCCCCc1ccc(Cl)cc1)S(=O)(=O)c1cccc(Cl)c1` (configuration not stated) the value was 104 to 106 °C; for `CC1=NC=CC(C)(c2c(F)cc3c(=O)c(C(=O)O)cn4c3c2OCC4C)C1` (configuration not stated), 308 to 312 °C.
For `CCCCCCCCCCCCCCCCCCOc1ccc(OCc2ccccc2)c(C(=O)N(CC(=O)O)CC(=O)O)c1` the value was 81 to 83 °C.
The figure for `CSc1nn2c(-n3ccnc3)cc(C)nc2c1S(=O)(=O)c1ccccc1` is above 230 °C.
Take `S=c1nc(-c2ccc(Cl)c(Cl)c2)[nH]n1Cc1ccccc1`: the melting point lay within 227 to 228 °C.
The figure for `CN(Cc1ccc(NC(=O)C2=Cc3cc(-c4ccc(S(C)(=O)=O)cc4)ccc3OCC2)cc1)C1CCOCC1` is 233 to 235 °C; for `O=C(O)CC1(CCCCCCCCCCC2(C(=O)O)CC2)CCC1` it is 62 to 63.9 °C.
The figure for `N#CC=Cc1ccc(C=O)cc1` is 122 °C; for `N#Cc1nc(SCc2cnn(-c3c(Cl)cc(C(F)(F)F)cc3Cl)n2)n(Cc2ccccc2)c1C#N` it is 132 °C; for `Cc1ccc(CC2CCN(CCOc3ccc4c(c3)=NC(=S)N=4)CC2)cc1` it is 271 to 273 °C.
For `CC(C)(C)C1NCc2ccccc2C1c1ccccc1` (configuration not stated) the value was 79 to 81 °C; for `CC(C)n1nc(-c2sc(N)nc2-c2cccc(F)c2)ccc1=O`, 237 to 238 °C.
Take `O=C(Nc1ccc(N2CCOCC2=O)cc1)[C@H]1C[C@@H](O)CN1C(=O)/C=C/c1ccc(Cl)s1`: the melting point was 151 °C.
The figure for `CC(C)(C)OC(=O)n1cnc2c([N+](=O)[O-])cccc21` is 249 °C.
With `CCN1c2ccccc2NC(=O)c2cscc21`, the melting point lay in the range of 201 to 202 °C.
The figure for `NS(=O)(=O)c1cccc(C2(O)CCCC2)c1` is 155 °C.

These data come from a melting point compilation (Tetko et al.; mined from patent text by program, amines drawn as free bases though some values may be those of a salt).
